Measurements: ChEMBL document CHEMBL1201862, “PubChem BioAssay data set” (2004)
Values belong to the compound of their own block, whether it stands above or below them. Activity calls are given as the source filed them.

What was measured:
Cytochrome P450 2C19 = Cytochrome P450 2C19 (Homo sapiens, UniProt P33261); test: Cytochrome panel assay with activity outcomes. Panel member name: p450-cyp2c19 Compounds with AC50 equal or less than 10 uM are considered active; assay type: functional
Cytochrome P450 2D6 [1] = molecular target: T1, Cytochrome P450 2D6 (Homo sapiens, UniProt P10635);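 further: CYP2D6 member of a cytochrome P450 panel assay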
T1 sequence (P10635 whole entry): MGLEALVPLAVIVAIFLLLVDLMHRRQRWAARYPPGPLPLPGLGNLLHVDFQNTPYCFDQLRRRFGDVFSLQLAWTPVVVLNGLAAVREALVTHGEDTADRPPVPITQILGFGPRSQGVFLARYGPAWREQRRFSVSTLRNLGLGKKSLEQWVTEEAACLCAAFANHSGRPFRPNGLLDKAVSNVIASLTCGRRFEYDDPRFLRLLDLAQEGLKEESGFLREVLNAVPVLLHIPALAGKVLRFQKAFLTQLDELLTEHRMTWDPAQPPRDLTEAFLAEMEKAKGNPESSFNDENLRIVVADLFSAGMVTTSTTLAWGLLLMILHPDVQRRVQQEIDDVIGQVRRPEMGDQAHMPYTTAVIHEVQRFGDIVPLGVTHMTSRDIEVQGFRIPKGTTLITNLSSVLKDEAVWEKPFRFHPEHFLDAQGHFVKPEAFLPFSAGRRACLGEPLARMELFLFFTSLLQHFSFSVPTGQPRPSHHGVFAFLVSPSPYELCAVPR

Cytochrome P450 3A4 = Cytochrome P450 3A4 (Homo sapiens, UniProt P08684);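 further: CYP3A4 tested as one member of a cytochrome P450 panel screen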
Cytochrome P450 3A4, sequence (P08684 whole entry): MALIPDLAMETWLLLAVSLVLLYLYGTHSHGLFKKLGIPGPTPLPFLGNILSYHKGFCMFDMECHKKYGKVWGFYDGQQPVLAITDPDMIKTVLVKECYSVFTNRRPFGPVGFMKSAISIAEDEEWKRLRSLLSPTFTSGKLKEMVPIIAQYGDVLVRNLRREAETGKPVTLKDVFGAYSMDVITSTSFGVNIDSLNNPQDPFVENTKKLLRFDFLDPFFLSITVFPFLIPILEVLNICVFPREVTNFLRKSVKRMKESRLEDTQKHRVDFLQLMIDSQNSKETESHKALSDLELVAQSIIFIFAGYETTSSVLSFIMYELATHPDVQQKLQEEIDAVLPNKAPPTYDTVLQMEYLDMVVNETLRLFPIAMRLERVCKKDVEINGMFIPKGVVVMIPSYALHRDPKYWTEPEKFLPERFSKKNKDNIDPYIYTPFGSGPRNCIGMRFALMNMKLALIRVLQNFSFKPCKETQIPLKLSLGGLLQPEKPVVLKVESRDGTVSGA

HEK293 [2] = test: cells; conditions: Homo sapiens
HEK293 [3] = test: cells; conditions: Homo sapiens; remark: listed apart in the source
Cytochrome P450 2C9 = Cytochrome P450 2C9 (Homo sapiens, UniProt P11712)
Cytochrome P450 2C9, sequence (P11712 whole entry, the tested form may be a part): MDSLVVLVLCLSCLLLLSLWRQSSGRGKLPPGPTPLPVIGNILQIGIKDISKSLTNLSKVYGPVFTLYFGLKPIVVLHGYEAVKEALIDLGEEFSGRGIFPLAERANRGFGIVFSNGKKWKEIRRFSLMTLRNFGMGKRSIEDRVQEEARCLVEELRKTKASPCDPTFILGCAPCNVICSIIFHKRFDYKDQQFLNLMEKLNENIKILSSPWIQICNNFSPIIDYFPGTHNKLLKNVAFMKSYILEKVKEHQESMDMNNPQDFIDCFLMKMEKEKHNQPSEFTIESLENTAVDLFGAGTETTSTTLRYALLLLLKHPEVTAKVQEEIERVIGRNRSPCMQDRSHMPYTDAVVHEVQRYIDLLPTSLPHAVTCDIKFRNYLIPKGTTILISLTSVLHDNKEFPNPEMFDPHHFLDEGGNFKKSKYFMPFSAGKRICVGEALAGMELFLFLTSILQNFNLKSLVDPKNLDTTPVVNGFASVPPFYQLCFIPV

[4] = inhibitors of HIV Env-driven cell fusion, dose response, cherry-pick (AID 652057); assay type: functional, cell-based
[5] = ZM109 Env clade C HIV-1 fusion inhibitors, dose response, HeLa effector, CEM target cells, luciferase, cherry-pick (AID 652058); assay type: functional, cell-based
[6] = off-target signal loss in HeLa-CEM21 co-culture – HeLa F-luc CTL cells, cherry-picked, counter-screen for HIV-1 Env fusion inhibitor project, dose response (AID 652040); assay type: functional, cell-based;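 further: potency for signal decrease marking cytotoxic or nonspecific inhibition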
[7] = inhibitors of clade B AD8 Env fusion, dose response, cell-based, cherry-pick (AID 652062); assay type: functional;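 further: luciferase signal from cell-cell fusion driven by HIV-1 clade B AD8 Env; potency is for inhibitors of fusion seen as a drop in luminescence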
[8] = inhibitors of intracellular T. cruzi replication, confirmation, NIH3T3 host cells, beta-gal luminescence (AID 2044); assay type: functional, cell-based;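 further: intracellular parasites grown in NIH/3T3 mouse fibroblasts as host cells; luminescent beta-galactosidase reporter signal from transgenic T. cruzi replicating inside host cells; inhibitors lower the luminescence signal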
[9] = cytotoxicity toward NIH3T3 fibroblasts, dose response, counter-screen, cell-based, ATP luminescence, mouse fibroblasts (AID 2010); assay type: functional;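 further: cells exposed to compound for about 90 hours before reading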
Bcl-2-related protein A1 = molecular target: T2, Bcl-2-related protein A1 (Mus musculus, UniProt Q07440); assay type: functional;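 further: confirmatory dose–response counterscreen on Bfl-1, used to check hits from a UBC13 polyubiquitin inhibitor campaign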
T2 sequence (Q07440 whole entry): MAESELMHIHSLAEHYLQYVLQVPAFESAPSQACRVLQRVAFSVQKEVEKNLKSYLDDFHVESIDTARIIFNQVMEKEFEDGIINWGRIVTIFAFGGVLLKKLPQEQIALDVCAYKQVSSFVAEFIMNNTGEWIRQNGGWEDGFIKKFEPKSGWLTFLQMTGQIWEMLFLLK

[10] = molecular target: T3, Ubiquitin-conjugating enzyme E2 N (Homo sapiens, UniProt P61088); assay type: functional
T3 sequence (P61088 whole entry): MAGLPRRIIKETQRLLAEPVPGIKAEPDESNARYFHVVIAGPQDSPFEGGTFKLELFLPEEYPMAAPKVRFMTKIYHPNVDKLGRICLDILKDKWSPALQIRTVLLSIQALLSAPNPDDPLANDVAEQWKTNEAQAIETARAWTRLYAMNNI

[11] = molecular target: T3, Ubiquitin-conjugating enzyme E2 N; assay type: functional; remark: listed apart in the source
[12] = molecular target: T4, DNA repair and recombination protein RAD54-like (Homo sapiens, UniProt Q92698); test: inhibitors of human RAD54 branch migration, confirmation, biochemical, fluorescence, cherry-picked samples, dose series (AID 651657); assay type: functional
T4 sequence (Q92698 whole entry): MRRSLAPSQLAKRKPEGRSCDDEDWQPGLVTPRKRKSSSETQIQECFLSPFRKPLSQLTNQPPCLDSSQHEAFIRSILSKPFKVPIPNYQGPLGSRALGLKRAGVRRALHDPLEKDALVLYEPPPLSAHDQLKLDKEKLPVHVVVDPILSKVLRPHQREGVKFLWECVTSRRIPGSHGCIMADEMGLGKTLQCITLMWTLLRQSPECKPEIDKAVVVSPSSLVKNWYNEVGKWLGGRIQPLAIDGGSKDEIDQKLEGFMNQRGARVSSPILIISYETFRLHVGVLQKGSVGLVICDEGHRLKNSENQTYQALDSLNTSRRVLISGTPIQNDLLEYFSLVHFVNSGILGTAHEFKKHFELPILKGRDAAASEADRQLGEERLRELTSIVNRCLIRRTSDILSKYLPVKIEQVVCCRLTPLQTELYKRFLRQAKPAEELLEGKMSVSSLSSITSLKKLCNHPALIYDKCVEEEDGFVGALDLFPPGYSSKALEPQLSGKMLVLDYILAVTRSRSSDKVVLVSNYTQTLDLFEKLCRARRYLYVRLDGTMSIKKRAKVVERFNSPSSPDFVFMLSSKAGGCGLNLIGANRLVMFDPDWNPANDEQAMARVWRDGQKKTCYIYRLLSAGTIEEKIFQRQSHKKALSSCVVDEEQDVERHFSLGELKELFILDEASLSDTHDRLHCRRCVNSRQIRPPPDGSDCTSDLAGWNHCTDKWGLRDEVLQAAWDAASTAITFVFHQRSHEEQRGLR

Beta-galactosidase = Beta-galactosidase (Escherichia coli, UniProt Q8VNN2); test: PubChem AID 485352; assay type: functional
Beta-galactosidase, sequence (Q8VNN2 whole entry): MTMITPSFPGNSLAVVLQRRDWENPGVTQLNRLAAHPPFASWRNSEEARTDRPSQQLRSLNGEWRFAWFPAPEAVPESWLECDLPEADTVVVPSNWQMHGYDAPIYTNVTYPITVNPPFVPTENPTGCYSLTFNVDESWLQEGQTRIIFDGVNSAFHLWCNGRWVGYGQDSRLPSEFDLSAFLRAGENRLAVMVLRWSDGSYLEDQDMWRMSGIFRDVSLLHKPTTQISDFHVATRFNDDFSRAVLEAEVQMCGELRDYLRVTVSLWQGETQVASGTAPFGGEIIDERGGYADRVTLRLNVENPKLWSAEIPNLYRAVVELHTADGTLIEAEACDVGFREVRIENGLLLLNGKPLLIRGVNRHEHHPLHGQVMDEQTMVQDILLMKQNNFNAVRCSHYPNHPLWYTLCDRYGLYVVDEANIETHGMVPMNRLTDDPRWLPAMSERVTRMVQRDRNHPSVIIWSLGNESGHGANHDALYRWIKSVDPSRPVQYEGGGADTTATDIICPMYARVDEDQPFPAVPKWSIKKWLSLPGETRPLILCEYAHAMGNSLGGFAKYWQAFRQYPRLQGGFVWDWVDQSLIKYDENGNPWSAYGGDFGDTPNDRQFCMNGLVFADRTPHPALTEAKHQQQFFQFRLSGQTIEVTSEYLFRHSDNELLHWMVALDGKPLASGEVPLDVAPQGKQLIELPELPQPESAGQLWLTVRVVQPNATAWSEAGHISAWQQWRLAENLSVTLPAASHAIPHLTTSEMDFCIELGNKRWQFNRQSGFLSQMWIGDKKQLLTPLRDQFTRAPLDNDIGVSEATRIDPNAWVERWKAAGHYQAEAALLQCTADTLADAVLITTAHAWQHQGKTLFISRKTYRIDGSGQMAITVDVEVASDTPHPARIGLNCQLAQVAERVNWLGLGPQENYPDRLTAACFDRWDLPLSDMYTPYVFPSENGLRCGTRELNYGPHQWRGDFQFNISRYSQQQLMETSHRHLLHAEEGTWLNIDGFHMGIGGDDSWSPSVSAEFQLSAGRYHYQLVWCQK

[13] = molecular target: T5, Type-1 angiotensin II receptor (Homo sapiens, UniProt P30556); test: AT1 receptor antagonists, dose response, selectivity assay for APJ receptor antagonist project, cell-based, uHTS hits (AID 463214); assay type: functional;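 further: antagonist potency against angiotensin II stimulated AT1 response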
T5 sequence (P30556 whole entry): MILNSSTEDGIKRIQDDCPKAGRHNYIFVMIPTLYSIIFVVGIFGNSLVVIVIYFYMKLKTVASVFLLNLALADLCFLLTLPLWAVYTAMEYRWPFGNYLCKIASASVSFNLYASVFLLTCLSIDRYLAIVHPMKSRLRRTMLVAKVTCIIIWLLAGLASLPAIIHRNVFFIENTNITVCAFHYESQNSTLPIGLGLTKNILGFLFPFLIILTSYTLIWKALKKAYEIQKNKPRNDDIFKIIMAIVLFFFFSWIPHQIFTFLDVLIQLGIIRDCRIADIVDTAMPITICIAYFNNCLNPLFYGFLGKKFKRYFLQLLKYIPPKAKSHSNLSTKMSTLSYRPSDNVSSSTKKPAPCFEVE

[14] = molecular target: T6, Short transient receptor potential channel 4 (Mus musculus, UniProt Q9QUQ5); test: mouse TRPC4 channel activators, dose response, cell-based, HEK293 TRPC4/mu-opioid, Fluo-4 calcium (AID 434937); assay type: functional
T6 sequence (Q9QUQ5 whole entry): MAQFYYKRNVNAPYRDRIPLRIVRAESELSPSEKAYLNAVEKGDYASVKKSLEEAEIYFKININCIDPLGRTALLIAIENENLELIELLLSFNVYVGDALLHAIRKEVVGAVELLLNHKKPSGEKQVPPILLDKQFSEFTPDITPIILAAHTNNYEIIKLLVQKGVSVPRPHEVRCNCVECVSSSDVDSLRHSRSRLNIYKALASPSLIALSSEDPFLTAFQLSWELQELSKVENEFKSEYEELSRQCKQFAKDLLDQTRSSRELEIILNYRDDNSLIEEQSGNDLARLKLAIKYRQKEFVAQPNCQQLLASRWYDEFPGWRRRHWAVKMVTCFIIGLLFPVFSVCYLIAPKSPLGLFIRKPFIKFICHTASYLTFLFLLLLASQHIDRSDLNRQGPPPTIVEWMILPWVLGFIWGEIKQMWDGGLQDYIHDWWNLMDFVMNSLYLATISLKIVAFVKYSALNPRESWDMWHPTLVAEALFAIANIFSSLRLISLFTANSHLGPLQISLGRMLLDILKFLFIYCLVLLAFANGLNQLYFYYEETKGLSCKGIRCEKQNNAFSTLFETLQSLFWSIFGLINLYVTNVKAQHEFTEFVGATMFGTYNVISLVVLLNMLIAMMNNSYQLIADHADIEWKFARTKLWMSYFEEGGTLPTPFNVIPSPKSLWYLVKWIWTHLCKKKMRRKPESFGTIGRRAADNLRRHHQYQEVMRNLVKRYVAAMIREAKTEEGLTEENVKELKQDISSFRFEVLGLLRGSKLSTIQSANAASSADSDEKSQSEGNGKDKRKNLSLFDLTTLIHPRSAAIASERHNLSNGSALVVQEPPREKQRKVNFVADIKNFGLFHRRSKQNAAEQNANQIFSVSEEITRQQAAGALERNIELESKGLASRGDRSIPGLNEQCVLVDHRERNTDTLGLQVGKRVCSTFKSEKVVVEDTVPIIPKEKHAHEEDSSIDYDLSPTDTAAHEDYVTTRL

[15] = molecular target: Delta-type opioid receptor (Homo sapiens, UniProt P41143); test: Counterscreen for agonists of heterodimerization of the mu 1 (OPRM1) and delta 1 (OPRD1) opioid receptors: Luminescence-based cell-based high throughput dose response assay to identify agonists of OPRD1 homodimerization. [Related pubchem assays (depositor defined):AID504326, AID504355, AID504692, AID504904, AID504905]; assay type: functional
Delta-type opioid receptor, sequence (P41143 whole entry): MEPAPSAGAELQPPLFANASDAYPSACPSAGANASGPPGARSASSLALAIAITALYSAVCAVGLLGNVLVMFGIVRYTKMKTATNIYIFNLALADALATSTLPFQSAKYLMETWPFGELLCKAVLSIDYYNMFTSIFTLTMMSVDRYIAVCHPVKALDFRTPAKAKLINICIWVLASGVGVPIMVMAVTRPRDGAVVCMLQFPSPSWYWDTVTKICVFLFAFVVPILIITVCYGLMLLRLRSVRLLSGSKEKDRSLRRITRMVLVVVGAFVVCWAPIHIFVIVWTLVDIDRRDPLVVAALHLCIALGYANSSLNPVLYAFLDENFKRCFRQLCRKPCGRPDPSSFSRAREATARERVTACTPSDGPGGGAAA

Mu-type opioid receptor = Mu-type opioid receptor (Homo sapiens, UniProt P35372); test: Counterscreen for agonists of heterodimerization of the mu 1 (OPRM1) and delta 1 (OPRD1) opioid receptors: Luminescence-based cell-based high throughput dose response assay to identify agonists of OPRM1 homodimerization.; assay type: functional;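 further: U2OS cells expressing OPRM1 and beta-arrestin as split beta-galactosidase partners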
Mu-type opioid receptor, sequence (P35372 whole entry): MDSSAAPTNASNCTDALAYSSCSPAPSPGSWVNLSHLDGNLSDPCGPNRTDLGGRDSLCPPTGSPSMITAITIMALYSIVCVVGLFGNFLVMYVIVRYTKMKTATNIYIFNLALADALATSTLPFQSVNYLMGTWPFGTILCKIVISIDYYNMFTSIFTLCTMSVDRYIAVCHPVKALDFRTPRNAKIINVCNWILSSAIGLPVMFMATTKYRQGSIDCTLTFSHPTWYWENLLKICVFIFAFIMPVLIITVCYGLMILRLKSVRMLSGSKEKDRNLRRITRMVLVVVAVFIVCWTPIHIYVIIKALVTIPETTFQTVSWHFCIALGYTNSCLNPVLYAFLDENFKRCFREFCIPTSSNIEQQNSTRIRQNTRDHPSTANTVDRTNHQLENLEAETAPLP

[16] = molecular target: 5-hydroxytryptamine receptor 5A (Homo sapiens, UniProt P47898); test: Counterscreen for agonists of OPRM1-OPRD1 heterodimerization: luminescence-based cell-based high throughput dose response assay to identify agonists of 5-hydroxytryptamine (serotonin) 5A receptor (HTR5A). [Related pubchem assays (depositor defined):AID504326, AID504355, AID504692, AID504904, AID504905]; assay type: functional
5-hydroxytryptamine receptor 5A, sequence (P47898 whole entry): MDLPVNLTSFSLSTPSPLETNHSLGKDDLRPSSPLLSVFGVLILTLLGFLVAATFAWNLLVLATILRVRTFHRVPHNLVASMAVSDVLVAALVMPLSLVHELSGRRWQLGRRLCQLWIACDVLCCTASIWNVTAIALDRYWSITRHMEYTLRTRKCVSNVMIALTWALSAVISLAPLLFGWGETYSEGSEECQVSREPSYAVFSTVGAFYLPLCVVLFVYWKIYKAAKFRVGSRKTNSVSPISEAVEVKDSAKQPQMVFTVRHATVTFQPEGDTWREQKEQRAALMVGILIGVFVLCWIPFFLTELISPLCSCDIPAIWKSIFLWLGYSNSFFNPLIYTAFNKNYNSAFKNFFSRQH

Cytochrome P450 2D6 [17] = molecular target: T1, Cytochrome P450 2D6; remark: listed apart in the source
[18] = molecular target: T7, Heat shock factor protein 1 (Mus musculus, UniProt P38532); test: HSF1 potentiators in luciferase reporter cells, confirmation, cell-based, NIH3T3, luminescence, dose retest (AID 435004); assay type: functional;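 further: stress induced by proteasome inhibitor MG132 added 30 min after compound; luciferase reporter driven by HSF1 response element in NIH3T3 cells; actives raise luminescence as potentiators of the MG132 stress response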
T7 sequence (P38532 whole entry): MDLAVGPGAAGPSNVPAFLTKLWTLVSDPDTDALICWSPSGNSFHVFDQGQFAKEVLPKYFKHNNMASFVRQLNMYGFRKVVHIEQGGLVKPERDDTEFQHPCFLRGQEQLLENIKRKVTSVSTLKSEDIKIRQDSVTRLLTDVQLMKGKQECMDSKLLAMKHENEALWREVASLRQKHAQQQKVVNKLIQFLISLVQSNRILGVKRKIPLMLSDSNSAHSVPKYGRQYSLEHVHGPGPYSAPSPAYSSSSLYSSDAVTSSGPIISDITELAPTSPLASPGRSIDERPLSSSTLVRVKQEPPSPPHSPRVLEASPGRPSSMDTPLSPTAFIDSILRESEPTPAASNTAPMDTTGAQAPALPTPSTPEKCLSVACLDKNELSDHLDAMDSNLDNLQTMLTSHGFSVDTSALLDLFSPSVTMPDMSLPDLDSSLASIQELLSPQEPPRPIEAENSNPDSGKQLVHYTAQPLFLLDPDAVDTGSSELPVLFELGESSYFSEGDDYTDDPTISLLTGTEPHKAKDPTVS

Cytochrome P450 2C19, sequence (P33261 whole entry): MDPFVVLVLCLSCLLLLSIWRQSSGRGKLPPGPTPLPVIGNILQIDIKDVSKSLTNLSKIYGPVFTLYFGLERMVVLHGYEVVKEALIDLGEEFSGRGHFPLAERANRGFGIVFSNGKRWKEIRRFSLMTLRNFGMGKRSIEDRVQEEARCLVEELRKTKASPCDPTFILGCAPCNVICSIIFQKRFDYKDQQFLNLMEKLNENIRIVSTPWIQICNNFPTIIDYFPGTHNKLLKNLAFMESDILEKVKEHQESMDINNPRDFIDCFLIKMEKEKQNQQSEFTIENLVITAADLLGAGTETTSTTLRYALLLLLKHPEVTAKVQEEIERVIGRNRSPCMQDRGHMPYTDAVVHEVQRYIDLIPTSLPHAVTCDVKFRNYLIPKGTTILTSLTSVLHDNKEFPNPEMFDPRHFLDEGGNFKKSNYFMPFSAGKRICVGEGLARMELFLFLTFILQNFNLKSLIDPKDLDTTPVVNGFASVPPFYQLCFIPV

SMILES: NCC(O)CN.Oc1c(Cl)c(Cl)c(Cl)c(Cl)c1Cl
AC50 (Cytochrome P450 2C19): inactive
AC50 (Cytochrome P450 2D6 [1]): inactive
AC50 (Cytochrome P450 3A4): inactive

SMILES: CN(C)S(=O)(=O)n1cc(/C=C(\NC(=O)c2ccccc2Cl)C(=O)N2CCCC2)c2ccccc21
EC50 (HEK293 [2]): > 59.6 µM (inactive)
EC50 (HEK293 [3]): > 59.6 µM (inactive)

SMILES: N=c1ccn2c(n1)O[C@@H]1[C@@H](O)[C@H](CO)O[C@H]12
AC50 (Cytochrome P450 2C19; read-out: AC50): 0.0316 µM (inconclusive)
AC50 (Cytochrome P450 3A4): inconclusive
AC50 (Cytochrome P450 2C9): inconclusive

SMILES: CC1CCC(NC(=O)CCn2ccc3cc(S(=O)(=O)N4CCCC4)ccc32)CC1 (stereo not drawn)
AC50 [4]: 3.53 µM (active)
AC50 [5]: 0.999 µM (active)
AC50 [6]: 5.19 µM (active)
AC50 [7]: 4.28 µM (active)
EC50 (HEK293 [2]): > 59.6 µM (inactive)
EC50 (HEK293 [3]): > 59.6 µM (inactive)

SMILES: COc1cc2nc(NCCCN3CCN(C)CC3)n3nc(-c4ccccc4)nc3c2cc1OC
EC50 [8]: 1.87 µM (active)
EC50 [9]: > 60 µM (not active)
IC50 (Bcl-2-related protein A1): > 20 µM (inactive)
IC50 [10]: 17.6 µM (active)
IC50 [11]: 6.25 µM (active)
AC50 [12]: 2.98 µM (active)

SMILES: NC(=O)c1ccccc1NC(=O)/C=C/c1cccc(Cl)c1
AC50 (Cytochrome P450 2C9): inconclusive

SMILES: Cc1ccccc1-c1cc(Nc2ccccc2)ncn1
AC50 (Cytochrome P450 2D6 [17]): 39.8 µM (inconclusive)
AC50 (Cytochrome P450 3A4): inconclusive

Continued, values first:

EC50 (Beta-galactosidase): > 40 µM (inactive)
IC50 [13]: 18 µM (active)
SMILES: CC(=O)Nc1cccc(C(=O)OCC(=O)c2ccc(S(=O)(=O)N3CCCCC3)cc2)c1

EC50 [14]: 2.11 µM (active)
EC50 [15]: > 92.5 µM (inactive)
EC50 (Mu-type opioid receptor): 15.7 µM (inactive)
EC50 [16]: > 92.5 µM (inactive)
SMILES: Cn1c(CN2CCN(c3cccc(Cl)c3)CC2)nc2ccccc21

EC50 [18]: > 260 µM (inactive)
EC50 [15]: > 92.5 µM (inactive)
EC50 (Mu-type opioid receptor): 70.5 µM (inactive)
EC50 [16]: > 92.5 µM (inactive)
SMILES: COc1ccc(-n2cc(CNCc3cccnc3)c(-c3cccc(F)c3)n2)cc1
